Results reported in article PMC12257073 (Cancer Research Communications, 2025).

Test system: p-H2AX
Assay: p-H2AX in peripheral blood by spectral flow cytometry
Assay type: in vivo, human
Details: cycle 1, CR (n = 2), CRh/CRi/MLFS (n = 8), SD, treatment failure or early death (n = 7)
Method: In brief, Ficoll-enriched peripheral blood mononuclear cells were stained for external markers, fixed, permeabilized, and then stained for p-H2AX (Thermo Fisher Scientific; AB_2896984). Sample analysis was performed in the Ohio State University Comprehensive Cancer Center Flow Cytometry Shared Resource and Immune Monitoring & Discovery Platform using the Cytek Aurora. Data were analyzed using FCS Express version 7 (De Novo Software).
Based on the observation that TP-0903 upregulates p-H2AX, a marker of DNA damage, in TP53-mutated cell lines ([24]), we hypothesized that p-H2AX could serve as a clinical biomarker for TP-0903 activity. Analysis of peripheral blood from days 1 and 10 of cycle 1 was performed by spectral flow cytometry. The mean fluorescence intensity was measured for p-H2AX, and then values at day 10 were normalized using baseline values collected on day 1 (Supplementary Fig. S4).

CN1CCN(Cc2ccc(Nc3ncc(Cl)c(Nc4ccccc4S(=O)(=O)N(C)C)n3)cc2)CC1.O=C(O)C(O)C(O)C(=O)O.O=C(O)C(O)C(O)C(=O)O [TP-0903, 2-(5-chloro-2-(4-((4-methylpiperazin-1-yl)methyl)phenylamino)pyrimidin-4-yl)amino-N,N-dimethylbenzene-1-sulfonamide di-tartrate salt]
Change in p-H2AX mean fluorescence intensity, day 10 normalized to day 1: no significant change
